From patent publication US20260317340A1, “COMPOUNDS, COMPOSITIONS, AND METHODS OF TREATING DISORDERS” (Chengdu Anticancer Bioscience, Ltd., priority 2023, published 2026) come the findings set out here.

The subject of one assay is RPE-Neo or RPE-MYC cells. Put plainly: MTT assay of cellular proliferation (proliferative arrest). It is filed as cell-based. The note with it: read-out: Min. Effective conc. for Proliferative arrest (>50%). In general terms: Formazan colour is commonly taken as a measure of viable cells.
Assay [1] deals with human cancer cell line NCI-H460. Put plainly: Tumor growth inhibition, NCI-H460 tumors in BAL B/c nude mice. The note with it: oral, 4 days-on, 3 days-off, 30% PEG300. In kind it is in vivo, human tumor cell line in BAL B/c nude mice. On the procedure: Six- to seven-week-old female BAL B/c nude mice were used in the human cancer cell line NCI-H460, which was derived from a lung cancer patient. Six- to seven-week-old female BAL B/c mice were used in the mouse […] cell line CT26 allograft models. 100 μL cell suspensions containing one million cells with […] (Corning, Cat. No. 354254) were implanted subcutaneously into the right flank of mice. Mice were monitored daily for well-being and weighed twice weekly. Caliper measurements of tumor sizes began when tumors became visible. Tumor volume (TV) was calculated by measuring two perpendicular diameters using the following formula: (L×W2)/2 in which L and W refer to the length and width of a tumor, respectively. When tumors reached an average size of 100 mm3, mice were first ranked according to tumor size and divided into “n” cohorts with X mice in each cohort. Each cohort was then sorted into 1 to X groups according to the random numbers size order generated by the RAND 0)function in Excel. In this way, the mice were randomized into X groups (n=4-6). Then the mice were orally administrated with vehicle (30% PEG 300) or indicated compounds at a dose volume of 5 mL/kg in a double-blinded manner. Oral administration was chosen because this is the intended route of use in the clinic. In all cases, no tumor measurement data or animals were excluded from the data analysis. Percentage of tumor growth inhibition (TGI) was calculated using the following formula: % TGI=average 100×[1−(final TV−initial TV of treatment group)/(final TV−initial TV of control group)]. As set forth in table 3 below, an values of greater than or equal to 35% and less than or equal to 45% […] is marked “C”; a value greater than 45% and less than or equal to 55% is marked “B”; a value greater than 55% and less than or equal to 70% is marked “A”; and […]

The test system of assay [2] is RPE-Neo or RPE-MYC or RPE-MYC expressing an EGFP-Histone 2B fusion protein. Put plainly: Phenotypic screening assay: arrest in mitosis, change in DNA content (polyploidy), cell death. In kind it is cell-based. The note with it: 20 nM to 20 μM, 24, 48 or 72 hours. The essentials: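 RPE-Neo, RPE-MYC or RPE-MYC EGFP-H2B cells plated 18-24 h before treatment with compounds at 20 nM to 20 μM. Mitotic arrest or DNA-content change scored by automated imaging at 24, 48 or 72 h; proliferation by MTT. Values binned into A–D ranges.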

Where [3] appears, read: read-out: Min. Effective conc. for Along with Cell Death.
Setting [4] is: ≥5%, read-out: Min. Effective conc. for Mitotic Arrest (≥5%).
[5] abbreviates: ≥5%, read-out: Min. Effective conc. for Polyploidy (≥5%).

Like-named read-outs stand apart in the source and are kept apart here.

In the case of `COc1ccc(CN2C(=O)CC(c3ncc(C)o3)=Cc3ccc(-c4cnn(CCN5CCOCC5)c4)cc32)cc1` [Compound 38, 1-(4-methoxybenzyl)-4-(5-methyloxazol-2-yl)-8-(1-(2-morpholinoethyl)-1H-pyrazol-4-yl)-1,3-dihydro-2H-benzo[b]azepin-2-one], the minimal effective concentration (with RPE-Neo or RPE-MYC cells; in assay [2] (setting [3]); in assay [2] (setting [4]); in assay [2] (setting [5])) was 0.001 to 1 µM in each case. For the same molecule, the TGI % entry in assay [1] (36 mg/kg, 20 days) is “B (greater than 45% and less than or equal to 55%)”.
As to `COc1ccc(CN2C(=O)CC(c3ncc(C)o3)=Cc3ccc(-c4ccc(N)nc4)cc32)cc1` [Compound 42, 8-(6-aminopyridin-3-yl)-1-(4-methoxybenzyl)-4-(5-methyloxazol-2-yl)-1,3-dihydro-2H-benzo[b]azepin-2-one], the minimal effective concentration (in the assay with RPE-Neo or RPE-MYC cells; in assay [2] (setting [3]); in assay [2] (setting [4]); in assay [2] (setting [5])) was 0.001 to 1 µM throughout. The TGI % result in assay [1] (36 mg/kg, 13 days) is “C (greater than or equal to 35% and less than or equal to 45% μM)”.
For `COc1ccc(CN2C(=O)CC(c3ncc(C)o3)=Cc3ccc(-c4cnn(CCO)c4)cc32)cc1` [Compound 36, 8-(1-(2-hydroxyethyl)-1H-pyrazol-4-yl)-1-(4-methoxybenzyl)-4-(5-methyloxazol-2-yl)-1,3-dihydro-2H-benzo[b]azepin-2-one], the minimal effective concentration (with RPE-Neo or RPE-MYC cells; in assay [2] (setting [3]); in assay [2] (setting [4]); in assay [2] (setting [5])) was 0.001 to 1 µM each time. In assay [1] (15 mg/kg, 20 days), the TGI % entry is “A (greater than 55% and less than or equal to 70%)”.
Turning to `COCCn1cc(-c2ccc3c(c2)N(Cc2ccc(OC)cc2)C(=O)CC(c2ncc(C)o2)=C3)cn1` [Compound 51, 1-(4-methoxybenzyl)-8-(1-(2-methoxyethyl)-1H-pyrazol-4-yl)-4-(5-methyloxazol-2-yl)-1,3-dihydro-2H-benzo[b]azepin-2-one], the minimal effective concentration (with RPE-Neo or RPE-MYC cells; in assay [2] (setting [3]); in assay [2] (setting [4]); in assay [2] (setting [5])) was 0.001 to 1 µM each time. Moreover, the TGI % result in assay [1] (15 mg/kg, 29 days) is “A (greater than 55% and less than or equal to 70%)”.
`COc1ccc(CN2C(=O)CC(c3ncc(C)o3)=Cc3ccc(-c4cnn(C5COC5)c4)cc32)cc1` [Compound 54, 1-(4-Methoxybenzyl)-4-(5-methyloxazol-2-yl)-8-(1-(oxetan-3-yl)-1H-pyrazol-4-yl)-1,3-dihydro-2H-benzo[b]azepin-2-one]: the minimal effective concentration (with RPE-Neo or RPE-MYC cells; in assay [2] (setting [3]); in assay [2] (setting [4]); in assay [2] (setting [5])) was 0.001 to 1 µM in each case. Also, the TGI % entry in assay [1] (50 mg/kg, 20 days) was “C (greater than or equal to 35% and less than or equal to 45% μM)”.
In the case of `COCCCn1cc(-c2ccc3c(c2)N(Cc2ccc(OC)cc2)C(=O)CC(c2ncc(C)o2)=C3)cn1` [Compound 57, 1-(4-Methoxybenzyl)-8-(1-(3-methoxypropyl)-1H-pyrazol-4-yl)-4-(5-methyloxazol-2-yl)-1,3-dihydro-2H-benzo[b]azepin-2-one], the minimal effective concentration (with RPE-Neo or RPE-MYC cells; in assay [2] (setting [3]); in assay [2] (setting [4]); in assay [2] (setting [5])) was 0.001 to 1 µM in each case. Also, the TGI % entry in assay [1] (80 mg/kg, 20 days) is “A (greater than 55% and less than or equal to 70%)”.
`[2H]C([2H])([2H])Oc1ccc(CN2C(=O)CC(c3ncc(C)o3)=Cc3ccc(-c4cnn(CC(C)(C)O)c4)cc32)cc1` [Compound 100, 8-(1-(2-Hydroxy-2-methylpropyl)-1H-pyrazol-4-yl)-1-(4-(methoxy-d3)benzyl)-4-(5-methyloxazol-2-yl)-1,3-dihydro-2H-benzo[b]azepin-2-one]: the minimal effective concentration (in the assay with RPE-Neo or RPE-MYC cells; in assay [2] (setting [3]); in assay [2] (setting [4]); in assay [2] (setting [5])) was 0.001 to 1 µM throughout.
For the molecule `COc1ccc(CN2C(=O)CC(c3ncc(C)o3)=Cc3ccc(-c4cncn4C)cc32)cc1` [Compound 32, 1-(4-methoxybenzyl)-8-(1-methyl-1H-imidazol-5-yl)-4-(5-methyloxazol-2-yl)-1,3-dihydro-2H-benzo[b]azepin-2-one], the minimal effective concentration (with RPE-Neo or RPE-MYC cells; in assay [2] (setting [3]); in assay [2] (setting [4]); in assay [2] (setting [5])) was 0.001 to 1 µM throughout.
In the case of `COc1ccc(CN2C(=O)CC(c3nnc(N)s3)=C(Br)c3ccccc32)cc1` [Compound 10, 4-(5-Amino-1,3,4-thiadiazol-2-yl)-5-bromo-1-(4-methoxybenzyl)-1,3-dihydro-2H-benzo[b]azepin-2-one], the minimal effective concentration (with RPE-Neo or RPE-MYC cells; in assay [2] (setting [3]); in assay [2] (setting [4]); in assay [2] (setting [5])) was 0.001 to 1 µM each time.
In the case of `COc1ccc(CN2C(=O)CC(c3ncc(C)o3)=Cc3ccc(-c4cnn(CC#N)c4)cc32)cc1` [Compound 68, 2-(4-(1-(4-methoxybenzyl)-4-(5-methyloxazol-2-yl)-2-oxo-2,3-dihydro-1H-benzo[b]azepin-8-yl)-1H-pyrazol-1-yl)acetonitrile], the minimal effective concentration (in the assay with RPE-Neo or RPE-MYC cells; in assay [2] (setting [3]); in assay [2] (setting [4]); in assay [2] (setting [5])) was 0.001 to 1 µM throughout.
In the case of `Cc1ccc(CN2C(=O)CC(c3nnc(C4CC4)o3)=C(Br)c3ccc(OCCOCCOCCOc4ccc5c(c4)N(Cc4ccc(C)c(F)c4)C(=O)CC(c4nnc(C6CC6)o4)=C5Br)cc32)cc1F` [Compound 3, 8,8′-(((Ethane-1,2-diylbis(oxy))bis(ethane-2,1-diyl))bis(oxy))bis(5-bromo-4-(5-cyclopropyl-1,3,4-oxadiazol-2-yl)-1-(3-fluoro-4-methylbenzyl)-1,3-dihydro-2H-benzo[b]azepin-2-one)], the minimal effective concentration (in the assay with RPE-Neo or RPE-MYC cells; in assay [2] (setting [3]); in assay [2] (setting [4]); in assay [2] (setting [5])) was 1 to 10 µM throughout.
Take `COc1ccc(CN2C(=O)CC(c3ncc(C)o3)=Cc3ccc(-c4cnn(C5(CC#N)CNC5)c4)cc32)cc1` [Compound 85, 2-(3-(4-(1-(4-Methoxybenzyl)-4-(5-methyloxazol-2-yl)-2-oxo-2,3-dihydro-1H-benzo[b]azepin-8-yl)-1H-pyrazol-1-yl)azetidin-3-yl)acetonitrile]: the minimal effective concentration (in the assay on RPE-Neo or RPE-MYC cells; in assay [2] (setting [3]); in assay [2] (setting [4]); in assay [2] (setting [5])) was 0.001 to 1 µM in each case.
On to `COc1ccc(CN2C(=O)CC(c3nnc(C4CC4)o3)=C(Br)c3cccc(F)c32)cc1` [Compound 4, 5-bromo-4-(5-cyclopropyl-1,3,4-oxadiazol-2-yl)-9-fluoro-1-(4-methoxybenzyl)-1,3-dihydro-2H-benzo[b]azepin-2-one], for which the minimal effective concentration (in the assay on RPE-Neo or RPE-MYC cells; in assay [2] (setting [3]); in assay [2] (setting [4]); in assay [2] (setting [5])) was 0.001 to 1 µM each time.
`COc1ccc(CN2C(=O)CC(c3ncc(C)o3)=Cc3ccc(-c4ccn(C)n4)cc32)cc1` [Compound 31, 1-(4-methoxybenzyl)-8-(1-methyl-1H-pyrazol-3-yl)-4-(5-methyloxazol-2-yl)-1,3-dihydro-2H-benzo[b]azepin-2-one]: the minimal effective concentration (in the assay on RPE-Neo or RPE-MYC cells; in assay [2] (setting [3]); in assay [2] (setting [4]); in assay [2] (setting [5])) was 0.001 to 1 µM each time.
